Data published in ChEMBL document CHEMBL2424535, “Fragment-based discovery of focal adhesion kinase inhibitors” (Bioorg Med Chem Lett, 2013).

What was measured:
[1] = Lipophilicity, log D of the compound at pH 7.4; format: physicochemical; conditions: buffer
[2] = Partition coefficient, log P of the compound; format: physicochemical; conditions: octanol/water

logD ([1]; read-out: logD)	logP ([2]; read-out: logP)	logD [1]	logP [2]	SMILES
4.05	3.98			Cc1ccc(-n2nc(C(C)(C)C)cc2NC(=O)Nc2ccc(-n3cnc4c(N)ncnc43)cc2)cc1
4.08	4.83			Cc1ccc(-n2nc(C(C)(C)C)cc2NC(=O)Nc2ccc(-n3cnc(C)c3)cc2)cc1
3.85	4.35			Cc1ccc(-n2nc(C(C)(C)C)cc2NC(=O)Nc2ccc(-n3ccnc3)cc2)cc1
3.94	4.07			Cc1ccc(-n2nc(C(C)(C)C)cc2NC(=O)Nc2ccc(-n3cnnc3)cc2)cc1
		3.89	2.86	Cc1ccc(-n2nc(C(C)(C)C)cc2NC(=O)Nc2ccc(-c3nnc(S)n3C)cc2)cc1
3.96	> 5.4			Cc1ccc(-n2nc(C(C)(C)C)cc2NC(=O)Nc2ccc(-n3cnc(Cl)c3Cl)cc2)cc1
4.33	4.6			Cc1ccc(-n2nc(C(C)(C)C)cc2NC(=O)Nc2ccc(-n3cncc3C)cc2)cc1
4.58	5.15			Cc1ccc(-n2nc(C(C)(C)C)cc2NC(=O)Nc2ccc(-c3csnn3)cc2)cc1
3.81	3.86			Cc1ccc(-n2nc(C(C)(C)C)cc2NC(=O)Nc2ccc(-n3nnnc3C)cc2)cc1
4.49	4.96			Cc1ccc(-n2nc(C(C)(C)C)cc2NC(=O)Nc2ccc(-c3cnco3)cc2)cc1
3.79	4.14			Cc1ccc(-n2nc(C(C)(C)C)cc2NC(=O)Nc2ccc(-n3cnnn3)cc2)cc1
3.21	3.34			Cc1ccc(-n2nc(C(C)(C)C)cc2NC(=O)Nc2ccc(-c3nncn3C)cc2)cc1
4.25	4.84			Cc1ccc(-n2nc(C(C)(C)C)cc2NC(=O)Nc2ccc(-c3cccnc3)cc2)cc1
3.88	5.13			Cc1ccc(-n2nc(C(C)(C)C)cc2NC(=O)Nc2ccc(-c3ccc(N)nc3)cc2)cc1
3.58	> 5			Cc1ccc(-n2nc(C(C)(C)C)cc2NC(=O)Nc2ccc(-c3ccncc3)cc2)cc1
3.94	> 5.4			COc1cc(OC)nc(-c2ccc(NC(=O)Nc3cc(C(C)(C)C)nn3-c3ccc(C)cc3)cc2)n1
4.02	4.25			COc1ccc(-c2ccc(NC(=O)Nc3cc(C(C)(C)C)nn3-c3ccc(C)cc3)cc2)cn1
3.94	> 5.4			Cc1ccc(-n2nc(C(C)(C)C)cc2NC(=O)Nc2ccc(-c3ccc(OCc4ccccc4)nc3)cc2)cc1
